Article PMC11040118 (Heliyon, 2024)
Where two headings read alike, the source gives them in different places.

Target: T1, Thyroperoxidase (TPO) (Rattus norvegicus, UniProt P14650)
T1 sequence (P14650 32-914): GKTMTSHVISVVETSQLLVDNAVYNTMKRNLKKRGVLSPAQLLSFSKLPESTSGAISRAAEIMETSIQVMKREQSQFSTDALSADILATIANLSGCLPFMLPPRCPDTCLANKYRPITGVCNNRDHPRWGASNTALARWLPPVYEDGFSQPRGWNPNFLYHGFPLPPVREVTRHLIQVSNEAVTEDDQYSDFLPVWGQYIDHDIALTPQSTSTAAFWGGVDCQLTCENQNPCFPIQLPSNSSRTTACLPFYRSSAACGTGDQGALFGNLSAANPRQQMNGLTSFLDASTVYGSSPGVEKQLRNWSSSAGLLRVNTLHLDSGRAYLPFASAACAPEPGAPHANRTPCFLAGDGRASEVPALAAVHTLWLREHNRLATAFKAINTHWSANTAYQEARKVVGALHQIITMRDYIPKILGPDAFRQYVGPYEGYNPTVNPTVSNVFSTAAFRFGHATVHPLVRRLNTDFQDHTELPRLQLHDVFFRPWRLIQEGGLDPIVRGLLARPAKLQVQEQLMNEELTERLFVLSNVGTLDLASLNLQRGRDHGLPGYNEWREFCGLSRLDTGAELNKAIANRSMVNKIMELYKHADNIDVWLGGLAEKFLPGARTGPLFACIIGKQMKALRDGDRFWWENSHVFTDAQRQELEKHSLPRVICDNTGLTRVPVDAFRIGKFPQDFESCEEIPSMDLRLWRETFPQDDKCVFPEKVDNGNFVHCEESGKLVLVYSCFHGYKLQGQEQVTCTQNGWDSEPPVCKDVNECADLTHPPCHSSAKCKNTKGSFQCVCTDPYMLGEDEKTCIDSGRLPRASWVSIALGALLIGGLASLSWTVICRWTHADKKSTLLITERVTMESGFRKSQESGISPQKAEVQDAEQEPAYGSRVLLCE
Format: biochemical

[1] = AVG IC50 ± SD, L-Tyr to MIT, rat thyroid microsomes, mean of N = 3 ± SD
[2] = Actual pIC50, in vitro value repeated in Table 2 for comparison with the models
[3] = Log10 Value of AVG IC50, L-Tyr to MIT, from average IC50, Table 1

IC50 [1] [nM] | IC50 [2] [nM] | IC50 [3] [nM] | Log10 Value of AVG IC50, L-Tyr to MIT (from average IC50, Table 1) | Actual pIC50 (in vitro value repeated in Table 2 for comparison with the models) | Structure (SMILES)
4930 ± 1970 | 5010 | 5010 |  |  | O=c1c(O)c(-c2ccc(O)cc2)oc2cc(O)cc(O)c12 [Kaemferol, Kaempferol]
7770 ± 2710 | 7940 | 7940 |  |  | CC[C@H](c1ccc(O)cc1)[C@@H](CC)c1ccc(O)cc1 [Hexestrol]
 |  |  | 6.48 | 6.48 | O=C(O[C@@H]1Cc2c(O)cc(O)cc2O[C@@H]1c1cc(O)c(O)c(O)c1)c1cc(O)c(O)c(O)c1 [Epigallocatechin gallate]
710 ± 50 | 724 |  |  |  | Oc1ccc(/C=C/c2cc(O)cc(O)c2)cc1 [Reservatrol, Resveratrol]
1510 ± 170 | 1550 | 1550 |  |  | COc1cc(CCC(=O)CC(=O)CCc2ccc(O)c(OC)c2)ccc1O [Tetrahydro curcumin, Tetrahydrocurcumin]
790 ± 340 | 813 | 813 |  |  | O=C(O)c1cc(O)c(O)c(O)c1 [Gallic acid hydrate]
1810 ± 430 | 1820 |  |  |  | COc1cc(/C=C/C(=O)CC(=O)/C=C/c2ccc(O)c(OC)c2)ccc1O [Curcumin]
8760 ± 1360 | 8910 | 8910 |  |  | Oc1ccc(OCc2ccccc2)cc1 [4-Benzyloxy phenol, 4-Benzyloxyphenol]

Structure (SMILES) | IC50 [1] [nM] | IC50 [2] [nM] | IC50 [3] [nM] | Log10 Value of AVG IC50, L-Tyr to MIT (from average IC50, Table 1) | Actual pIC50 (in vitro value repeated in Table 2 for comparison with the models)
NC(=S)Nc1ccccc1 [Phenylthiourea] | 2730 ± 690 | 2750 |  |  | 
